# Experimental data as given in patent US9884832B2 (priority 2011, dated 2018).
# Molecular target: AM2 S31 (wild-type serine at position 31 in the M2 protein), influenza virus A/Udorn/72 (Influenza A virus, UniProt P0DOF5)
# Assay: cell-based
# Conditions: 100 uM; Xenopus oocytes; activity range class; read-out: S31 OOcyte Inhibition at 100 uM (%)
# AM2 S31 (wild-type serine at position 31 in the M2 protein), influenza virus A/Udorn/72, sequence (P0DOF5 whole entry, looked up): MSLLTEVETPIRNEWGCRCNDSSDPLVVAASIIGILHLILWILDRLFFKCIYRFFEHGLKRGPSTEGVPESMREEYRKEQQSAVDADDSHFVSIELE
row,Compound,inhibition at 100 µM [%]
1,"CCc1ccc(CNC23CC4CC(CC(C4)C2)C3)s1 [Example 98a, N-((5-ethylthiophen-2-yl)methyl)adamantan-1-amine]",31 to 95
2,"c1cc(-c2csc(CNC34CC5CC(CC(C5)C3)C4)c2)cs1 [Example 152a, N-([3,3′-bithiophen]-5-ylmethyl)adamantan-1-amine]",0 to 30
3,"OC1CCC(CNC23CC4CC(CC(C4)C2)C3)CC1 (stereo not drawn) [Example 170a, 4-(Adamantan-1-ylaminomethyl)-cyclohexanol]",0 to 30
4,"Cc1oc(-c2cccs2)nc1CNC12CC3CC(CC(C3)C1)C2 [Example 145a, N-((5-methyl-2-(thiophen-2-yl)oxazol-4-yl)methyl)adamantan-1-amine]",0 to 30
5,"c1csc(-c2ccc(CNC3C4CC5CC(C4)CC3C5)s2)c1 (stereo not drawn) [Example 205a, N-([2,2′-bithiophen]-5-ylmethyl)adamantan-2-amine]",0 to 30
6,"c1csc(-c2ncc(CNC34CC5CC(CC(C5)C3)C4)cn2)c1 [Example 61a, N-((2-(thiophen-2-yl)pyrimidin-5-yl)methyl)adamantan-1-amine]",0 to 30
7,"Cc1ccc(CNC23CC4CC(CC(C4)C2)C3)cc1 [Example 8a, N-(4-Methylbenzyl)adamantan-1-amine]",31 to 95
8,"COc1ccc(-c2nnc(CNC34CC5CC(CC(C5)C3)C4)o2)cc1 [Example 127a, N-((5-(4-methoxyphenyl)-1,3,4-oxadiazol-2-yl)methyl)adamantan-1-amine]",0 to 30
9,"CC(C)c1csc(CNC23CC4CC(CC(C4)C2)C3)n1 [Example 84a, N-((4-isopropylthiazol-2-yl)methyl)adamantan-1-amine]",0 to 30
10,"COc1ccc(C(C)NC23CC4CC(CC(C4)C2)C3)cc1 (stereo not drawn) [Example 11a, N-(1-(4-methoxyphenyl)ethyl)adamantan-1-amine]",31 to 95
11,"Nc1ncc(CNC23CC4CC(CC(C4)C2)C3)s1 [Example 93a, 5-((adamantan-1-ylamino)methyl)thiazol-2-amine]",31 to 95
12,"COc1ccc(-c2cc(CNC34CC5CC(CC(C5)C3)C4)no2)cc1 [Example 110a, N-((5-(4-methoxyphenyl)isoxazol-3-yl)methyl)adamantan-1-amine]",0 to 30
13,"CSc1ccc(-c2ccc(CNC34CC5CC(CC(C5)C3)C4)s2)cc1 [Example 112a, N-((5-(4-(methylthio)phenyl)thiophen-2-yl)methyl)adamantan-1-amine]",0 to 30
14,"COc1ccc2nc(CN(Cc3nc4ccc(OC)cc4[nH]3)C34CC5CC(CC(C5)C3)C4)[nH]c2c1 [Example 201a, Adamantan-1-yl-bis-(6-methoxy-1H-benzoimidazol-2-ylmethyl)-amine]",0 to 30
15,"c1ccc2nc(CNC34CC5CC(CC(C5)C3)C4)ccc2c1 [Example 56a, Adamantan-1-yl-quinolin-2-ylmethyl-amine]",31 to 95
16,"c1csc(CNC23CC4CC(CC(C4)C2)C3)c1 [Example 70a, Adamantan-1-yl-thiophen-2-ylmethyl-amine]",31 to 95
17,"Cc1ccc(-c2ccc(CNC34CC5CC(CC(C5)C3)C4)s2)s1 [Example 141a, N-((5′-methyl-[2,2′-bithiophen]-5-yl)methyl)adamantan-1-amine]",0 to 30
18,"CCSc1ccc(CNC23CC4CC(CC(C4)C2)C3)cc1 [Example 12a, N-(4-(ethylthio)benzyl)adamantan-1-amine]",0 to 30
19,"c1csc(CNC23CC4CC(CC(C4)C2)C3)n1 [Example 71a, Adamantan-1-yl-thiazol-2-ylmethyl-amine]",31 to 95
20,Fc1ccc(-c2nc(CNC34CC5CC(CC(C5)C3)C4)no2)cc1 [Example 163a],0 to 30

# Same assay, conditions: Table 1; 100 uM; Xenopus oocytes, pH 5.5, -20 mV; read-out: S31 OOcyte Inhibition at 100 uM (%)
row,Compound,inhibition at 100 µM [%]
1,"Oc1ccc(CNC23CC4CC(CC(C4)C2)C3)cc1F [Example 48, 4-(Adamantan-1-ylaminomethyl)-2-fluoro-phenol]",31 to 95
2,"NCc1ccc(CNC23CC4CC(CC(C4)C2)C3)cc1 [Example 13, Adamantan-1-yl-(4-aminomethyl-benzyl)-amine]",0 to 30
3,"Oc1ccc(CNC23CC4CC(CC2C4)C3)c(O)c1 [Example 111, 4-[(Hexahydro-2,5-methano-pentalen-3a-ylamino)-methyl]-benzene-1,3-diol]",31 to 95
4,"c1c(CNC23CC4CC(CC(C4)C2)C3)sc2c1CSC2 [Example 84, Adamantan-1-yl-(4,6-dihydro-thieno[3,4-b]thiophen-2-ylmethyl)-amine]",31 to 95
5,"COc1ccccc1CNC12CC3CC(CC(C3)C1)C2 [Example 29, Adamantan-1-yl-(2-methoxy-benzyl)-amine]",0 to 30
6,"c1ccc2sc(CNC34CC5CC(CC(C5)C3)C4)nc2c1 [Example 91, Adamantan-1-yl-benzothiazol-2-ylmethyl-amine]",0 to 30
7,"COc1ccc(CNC23CC4CC(CC(C4)C2)C3)cc1O [Example 61, 5-(Adamantan-1-ylaminomethyl)-2-methoxy-phenol]",31 to 95
8,"c1csc(-c2ccc(CNC34CC5CC(CC(C5)C3)C4)cc2)c1 [Example 44, N-(4-(Thiophen-2-yl)benzyl)adamantan-1-amine]",0 to 30
9,"c1cn2cc(CNC34CC5CC(CC(C5)C3)C4)nc2s1 [Example 86, Adamantan-1-yl-imidazo[2,1-b]thiazol-6-ylmethyl-amine]",31 to 95

# Same assay, conditions: Table 3; 100 uM; Xenopus oocytes, pH 5.5, -20 mV; read-out: S31 OOcyte Inhibition at 100 uM (%)
row,Compound,inhibition at 100 µM [%]
1,"CSc1ccccc1-c1ccc(CNC23CC4CC(CC(C4)C2)C3)cc1 [Example 66b, Adamantan-1-yl-(2′-methylsulfanyl-biphenyl-4-ylmethyl)-amine]",0 to 30
2,"Cc1ncc(CNC23CC4CC(CC(C4)C2)C3)s1 [Example 16b, N-((2-methylthiazol-5-yl)methyl)adamantan-1-amine]",0 to 30
3,"CCCc1nc(CNC23CC4CC(CC(C4)C2)C3)no1 [Example 29b, N-((5-propyl-1,2,4-oxadiazol-3-yl)methyl)adamantan-1-amine]",0 to 30
4,"CSc1ccccc1-c1ccc(CNC23CC4CC(CC(C4)C2)C3)nc1 [Example 67b, Adamantan-1-yl-[5-(2-methylsulfanyl-phenyl)-pyridin-2-ylmethyl]-amine]",31 to 95
